This assay relates to Aβ40 in conditioned medium of cells stably expressing Amyloid Precursor Protein (APP). Description: BACE cell-based assay: Aβ40 in conditioned medium by sandwich ELISA. Conditions: cell based assay data, Table 4; unit inferred; read-out: Cell Assay. The gist of the method: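 Aβ40 in conditioned medium was read by time-resolved fluorescence sandwich ELISA (capture pAb40, detection biotinylated 6E10, 4° C incubations). Compounds were applied for 24 h to cells stably expressing APP, at 10 doses from 100 or 10 μM top, 0.1% DMSO. IC50 derived from percent of control.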
On the technique in general: In an ELISA, binding on a coated surface is turned into a signal by an enzyme label.
On to `CC(=O)N[C@@H](CC1CC1)[C@H](O)CN[C@H]1CC2(CCC2)Oc2ncc(CC(C)(C)C)cc21` [compound 722, N-((1S,2R)-1-(cyclopropylmethyl)-3-(((4′S)-6′-(2,2-dimethylpropyl)-3′,4′-dihydrospiro[cyclobutane-1,2′-pyrano[2,3-b]pyridin]-4′-yl)amino)-2-hydroxypropyl)acetamide], for which the IC50 was 0.0465 µM. As to `CC(=O)N[C@@H](CC1CC1C)[C@H](O)CN[C@H]1CC2(CCC2)Oc2ncc(CC(C)(C)C)cc21` (stereo partly drawn) [compound 723, N-((1S,2R)-3-(((4′S)-6′-(2,2-dimethylpropyl)-3′,4′-dihydrospiro[cyclobutane-1,2′-pyrano[2,3-b]pyridin]-4′-yl)amino)-2-hydroxy-1-((2-methylcyclopropyl)methyl)propyl)acetamide], the IC50 was 0.195 µM. With `CC(=O)N[C@@H](CC1CC1)[C@H](O)CN[C@H]1CC2(CCC2)Oc2ncc(CC(C)(C)CC(F)F)cc21` [compound 724, N-((1S,2R)-1-(cyclopropylmethyl)-3-(((4′S)-6′-(4,4-difluoro-2,2-dimethylbutyl)-3′,4′-dihydrospiro[cyclobutane-1,2′-pyrano[2,3-b]pyridin]-4′-yl)amino)-2-hydroxypropyl)acetamide] the figure was 0.184 µM; with `CC(=O)N[C@@H](CC1CC1)[C@H](O)CN[C@H]1C[C@]2(C[C@H](C)C2)Oc2ncc(CC(C)(C)C)cc21` [compound 725, N-((1S,2R)-1-(cyclopropylmethyl)-3-(((1s,3R,4′S)-6′-(2,2-dimethylpropyl)-3-methyl-3′,4′-dihydrospiro[cyclobutane-1,2′-pyrano[2,3-b]pyridin]-4′-yl)amino)-2-hydroxypropyl)acetamide], 0.0688 µM; with `CC(=O)N[C@@H](Cc1ccnc(OC(F)F)c1)[C@H](O)CN[C@H]1CC2(CCC2)Oc2ncc(CC(C)(C)C)cc21` [compound 726, N-((1S,2R)-1-((2-((difluoromethyl)oxy)-4-pyridinyl)methyl)-3-(((4′S)-6′-(2,2-dimethylpropyl)-3′,4′-dihydrospiro[cyclobutane-1,2′-pyrano[2,3-b]pyridin]-4′-yl)amino)-2-hydroxypropyl)acetamide], 0.00972 µM. As for `CN(C)CC(=O)N[C@@H](Cc1cccc(C#N)c1)[C@H](O)CN[C@H]1CC2(CCC2)Oc2ccc(Br)cc21` [compound 727], the IC50 worked out at 0.3 µM. With `COC(=O)c1ccc2c(c1)[C@@H](NC[C@@H](O)[C@H](Cc1cccc(C#N)c1)NC(=O)CN(C)C)CC1(CCC1)O2` [compound 728] the figure was 0.0439 µM. With `COC(=O)c1ccc2c(c1)[C@@H](NC[C@@H](O)[C@H](Cc1cccc(C#N)c1)NC(C)=O)CC1(CCC1)O2` [compound 729] the figure was 1.45 µM; with `COCC(=O)N[C@@H](Cc1cccc(C#N)c1)[C@H](O)CN[C@H]1CC2(CCC2)Oc2ccc(C(=O)OC)cc21` [compound 730], 1.02 µM; with `CCc1ccc2c(c1)[C@@H](NC[C@@H](O)[C@H](COC)NC(C)=O)CC1(CCC1)O2` [compound 731], 2.52 µM.

`CCCOC[C@H](NC(C)=O)[C@H](O)CN[C@H]1CC2(CCC2)Oc2ccc(CC)cc21` [compound 732]: the IC50 was found to be 3.26 µM.

Consider `CCc1ccc2c(c1)[C@@H](NC[C@@H](O)[C@H](COCc1ccccc1)NC(C)=O)CC1(CCC1)O2` [compound 733], for which the IC50 was ≥ 10 µM. With `CCc1ccc2c(c1)[C@@H](NC[C@@H](O)[C@H](Cn1cccn1)NC(C)=O)CC1(CCC1)O2` [compound 734], the IC50 was determined as 5.37 µM. For the molecule `CC(=O)N[C@@H](Cn1cccn1)[C@H](O)CN[C@H]1CC2(CCC2)Oc2ncc(CC(C)(C)C)cc21` [compound 735], the IC50 is ≥ 10 µM. Take `C=CC[C@H](NC(C)=O)[C@@H](O)CN[C@H]1CC2(CCC2)Oc2ncc(CC(C)(C)C)cc21` [compound 737, N-((1S)-1-((1S)-2-(((4′S)-6′-(2,2-dimethylpropyl)-3′,4′-dihydrospiro[cyclobutane-1,2′-pyrano[2,3-b]pyridin]-4′-yl)amino)-1-hydroxyethyl)-3-buten-1-yl)acetamide]: the IC50 was ≥ 10 µM.

Source of the values: patent US7973047B2, “Beta-Secretase modulators and methods of use” (Amgen Inc., priority 2010, dated 2011).
